Results on 20 compounds are retold here after patent US20220304911A1, “ORAL CARE PRODUCT WITH CANNABINOID COMPOUNDS” (Demetrix, Inc., priority 2021, published 2022).

This test relates to Streptococcus mutans (S. mutans). In words: minimum inhibitory concentration (MIC) assay against S. mutans. The class given is cell-based. Here is the method: As used herein “minimum inhibitory concentration” or “MIC” refers to the lowest concentration (in μg/mL) of an antibiotic that inhibits the growth of a given strain of bacteria.
To determine the ability of the cannabinoid compounds described herein to reduce, or eliminate, S. mutans, a minimum inhibitory concentration (“MIC”) assay was performed. The assay was performed by Charles River Discovery Research Services UK Limited (Portishead, United Kingdom) in accordance with industry standards.

Where [1] appears, read: Streptococcus mutans, read-out: minimum inhibitory concentration (MIC) against S. mutans.
Where [2] appears, read: S. mutans, assay performed by Charles River Discovery Research Services UK Limited.

≈ marks a conversion by molar mass, not a printed value. Like-named read-outs stand apart in the source and are kept apart here.

As to `CCCCCc1cc(O)c2c(c1)OC(C)(CCC=C(C)C)C=C2` (stereo not shown) [CBC, cannabichromene], the MIC reads like this: (Streptococcus mutans) 25 µg/mL (≈ 79.5 µM); under setting [1], < 25 µg/mL.

On to `CCCCCc1cc2c(c(O)c1C(=O)O)C=CC(C)(CCC=C(C)C)O2` (stereo not shown) [CBCA, cannabichromenic acid], for which, under setting [2], the “MIC” value is >200 µg/mL.

For `C=C(C)[C@@H]1CCC(C)=C[C@H]1c1c(O)cc(CCCCC)cc1O` [CBD, cannabidiol], the MIC (Streptococcus mutans, S. mutans, assay performed by Charles River Discovery Research Services UK Limited, read-out: MIC) is 25 µg/mL (≈ 79.5 µM) and the MIC (Streptococcus mutans, S. mutans, summary statement in the description, read-out: minimum inhibitory concentration (MIC) against S. mutans) is < 25 µg/mL.

As for `C=C(C)[C@@H]1CCC(C)=C[C@H]1c1c(O)cc(C)cc1O` [CBD-C1], the “MIC” value under setting [2] worked out at 100 µg/mL (≈ 387 µM).

On to `C=C(C)[C@@H]1CCC(C)=C[C@H]1c1c(O)cc(CC)cc1O` [CBD-C2, cannabidiol ethyl], for which the “MIC” value under setting [2] was found to be 25 µg/mL (≈ 91.8 µM).

Consider `C=C(C)[C@@H]1CCC(C)=C[C@H]1c1c(O)cc(CCCC)cc1O` [CBD-C4, cannabidibutol], for which, under setting [2], the “MIC” value was determined as 25 µg/mL (≈ 83.2 µM).

Consider `C=C(C)[C@@H]1CCC(C)=C[C@H]1c1c(O)cc(CCCCC)c(C(=O)O)c1O` [CBDA, cannabidiolic acid], for which the MIC is, setting by setting: (Streptococcus mutans) 25 µg/mL (≈ 69.7 µM); under setting [1], < 25 µg/mL.

For `C=C(C)[C@@H]1CCC(C)=C[C@H]1c1c(O)cc(CCC)cc1O` [CBDV, cannabidivarin], the MIC (Streptococcus mutans) turned out to be 25 µg/mL (≈ 87.3 µM) and the MIC under setting [1] was < 25 µg/mL.

Take `C=C(C)[C@@H]1CCC(C)=C[C@H]1c1c(O)cc(CCC)c(C(=O)O)c1O` [CBDVA, cannabidivarinic acid]: under setting [2], the “MIC” value was 25 µg/mL (≈ 75.7 µM).

On to `CCCCCc1cc(O)c(C/C=C(\C)CCC=C(C)C)c(O)c1` [CBG, cannabigerol], for which the MIC by setting is: (Streptococcus mutans) 25 µg/mL (≈ 79 µM); under setting [1], < 25 µg/mL.

For the compound `CCCCc1cc(O)c(CC=C(C)CCC=C(C)C)c(O)c1` [CBG-C4, cannabigerol butyl], under setting [2], the “MIC” value amounted to 25 µg/mL (≈ 82.7 µM).

As for `CCCCCc1cc(O)c(C/C=C(\C)CCC=C(C)C)c(O)c1C(=O)O` [CBGA, cannabigerolic acid], the MIC was 25 µg/mL (≈ 69.3 µM) (Streptococcus mutans) and < 25 µg/mL under setting [1].

For the compound `CCCCc1cc(O)c(C/C=C(\C)CCC=C(C)C)c(O)c1C(=O)O` [CBGA-C4, cannabigerolic acid butyl], the “MIC” value under setting [2] worked out at 12.5 µg/mL (≈ 36.1 µM).

As for `CCCc1cc(O)c(C/C=C(\C)CCC=C(C)C)c(O)c1` [CBGV, cannabigerovarin], the “MIC” value under setting [2] was 25 µg/mL (≈ 86.7 µM).

`CCCc1cc(O)c(C/C=C(\C)CCC=C(C)C)c(O)c1C(=O)O` [CBGVA, cannabigerovarinic acid]: the “MIC” value under setting [2] is >200 µg/mL.

`CCCCCc1cc(O)c2c(c1)OC1(C)CCC3C1C2C3(C)C` (stereo not shown) [CBL, cannabicyclol]: the MIC is, setting by setting: (Streptococcus mutans) > 200 µg/mL; under setting [1], > 25 µg/mL.

On to `CCCCCc1cc2c(c(O)c1C(=O)O)C1C3C(CCC3(C)O2)C1(C)C` (stereo not shown) [CBLA, cannabicyclolic acid], for which, under setting [2], the “MIC” value was >200 µg/mL.

Take `CCCCCc1cc(O)c2c(c1)OC(C)(C)c1ccc(C)cc1-2` [CBN, cannabinol]: the MIC was 50 µg/mL (≈ 161 µM) (Streptococcus mutans) and > 25 µg/mL under setting [1].

For `CCCCCc1cc2c(c(O)c1C(=O)O)-c1cc(C)ccc1C(C)(C)O2` [CBNA, cannabinolic acid], under setting [2], the “MIC” value was >200 µg/mL.

With (+)-cannabidiol [(+)-CBD], the “MIC” value under setting [2] amounted to 25 µg/mL.
